# According to patent publication US5386011A, “Hexapeptide anaphylatoxin-receptor ligands” (priority 1990, dated 1995):
# Structures can show the parent of a compound that is named as a salt. Where a SMILES comes first, the peptide text is derived from it. [ ]: non-standard residue; d: D form. The star is where a group is joined. Phe(4-I) = N[C@@H](Cc1ccc(I)cc1)C(=O)O; d1Nal = N[C@H](Cc1cccc2ccccc12)C(=O)O; NMeF = CN[C@@H](Cc1ccccc1)C(=O)O; Cha = N[C@@H](CC1CCCCC1)C(=O)O; dCha = N[C@H](CC1CCCCC1)C(=O)O; dPhg = N[C@@H](C(=O)O)c1ccccc1; NMe(benzyl) = CN(Cc1ccccc1)*; dNle = CCCC[C@@H](N)C(=O)O; Nle = CCCC[C@H](N)C(=O)O; Tfa = O=C(C(F)(F)F)*
# Biological target: T1, C5a Receptor (Homo sapiens, UniProt P21730)
# T1 construct: 2.5-25 ug/mL of purified PMNL membrane fragments; endogenous in cells; host or cells: PMNL (polymorphonuclear leukocytes), purified membrane fragments
# T1 sequence (P21730 1-350): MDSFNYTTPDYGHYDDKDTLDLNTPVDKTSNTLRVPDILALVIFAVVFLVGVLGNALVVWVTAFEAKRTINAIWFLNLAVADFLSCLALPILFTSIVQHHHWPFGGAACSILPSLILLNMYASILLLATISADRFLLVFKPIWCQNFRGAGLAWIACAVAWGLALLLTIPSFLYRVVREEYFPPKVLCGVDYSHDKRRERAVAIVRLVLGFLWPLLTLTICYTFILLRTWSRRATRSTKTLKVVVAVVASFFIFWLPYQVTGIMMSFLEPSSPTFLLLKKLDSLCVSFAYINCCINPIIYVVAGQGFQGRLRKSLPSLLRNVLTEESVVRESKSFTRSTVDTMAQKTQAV
# Test: Anaphylatoxin receptor binding Ki determination: inhibition of 125I-C5a binding to purified PMNL membrane fragments
# Details: 0.03-1 nM 125I-C5a, 2.5-25 ug/mL purified PMNL membrane fragments, filtration; read-out: Ki (In vitro C5a Receptor Binding Potency)
# Method: Specific inhibition of C5a binding activity of representative compounds of the present invention was measured using 0.03-1 nM ^125 I-C5a with 2.5-25 ug/mL of purified PMNL membrane fragments (Borregaard, N.; Heiple, J. M.; Simons, E. R.; and Clark, R. A. J. Cell. Biol. 1983, 97, 52-61.). Free and membrane-bound ligand were separated by filtration.
compound,measurement,value
"CC(C)[C@H](NC(=O)[C@H](CCCCN)NC(=O)[C@@H](N)Cc1ccccc1)C(=O)N[C@H](CC1CCCCC1)C(=O)N[C@@H](CC1CCCCC1)C(=O)N[C@H](CCCNC(=N)N)C(=O)O [Example 360, H-Phenylalanyl-Lysyl-Valyl-{(2R)-2-Amino-3-cyclohexylpropanoyl}-{(2S)-2-Amino-3-cyclohexylpropanoyl}-DArginyl-OH] (H-FKV[dCha][Cha][dR]-OH)",Ki,53 nM
"CN[C@@H](Cc1ccccc1)C(=O)N[C@@H](CCCCN)C(=O)N[C@@H](C)C(=O)N[C@H](CC1CCCCC1)C(=O)N[C@@H](CC1CCCCC1)C(=O)N[C@H](CCCNC(=N)N)C(=O)O [Example 152, (N-Methyl)Phenylalanyl-Lysyl-Alanyl-{(2R)-2-Amino-3-cyclohexylpropanoyl}-{(2S)-2-Amino-3-cyclohexylpropanoyl}-DArginyl-OH] (H-[NMeF]KA[dCha][Cha][dR]-OH)",Ki,83 nM
"CN[C@@H](Cc1ccccc1)C(=O)N[C@@H](CCCCN)C(=O)N1CCC[C@H]1C(=O)N[C@H](CC1CCCCC1)C(=O)N[C@@H](CC1CCCCC1)C(=O)N[C@H](CCCNC(=N)N)C(=O)N(C)Cc1ccccc1 [Example 97, (N-Methyl)Phenylalanyl-Lysyl-Prolyl-{(2R) -2-Amino-3-cyclohexylpropanoyl}-{(2S)-2-Amino-3-cyclohexylpropanoyl}-DArginyl-N-(Methyl)(Benzyl)] (H-[NMeF]KP[dCha][Cha][dR]-{NMe(benzyl)})",Ki,520 nM
"CCCC[C@@H](NC(=O)[C@H](CC(C)C)NC(=O)[C@H](CC1CCCCC1)NC(=O)[C@H](CC1CCCCC1)NC(=O)[C@H](C)NC(=O)[C@H](CCCCN)NC(=O)[C@@H](N)Cc1ccccc1)C(=O)O [Example 390, H-Phenylalanyl-Lysyl-Alanyl-{(2S)-2-Amino-3-cyclohexylpropanoyl}-{(2S)-2-Amino-3-cyclohexylpropanoyl}-Leucyl-DNorleucyl-OH] (H-FKA[Cha][Cha]L[dNle]-OH)",Ki,4000 nM
"CN[C@@H](Cc1ccccc1)C(=O)N[C@@H](CCCCN)C(=O)N1CCC[C@H]1C(=O)N[C@H](CC1CCCCC1)C(=O)N[C@@H](Cc1ccccc1)C(=O)N[C@@H](C(=O)O)c1ccccc1 [Example 367, (N-Methyl)Phenylalanyl-Lysyl-Prolyl-{(2R)-2-Amino-3-cyclehexylpropanoyl}-Phenylalanyl-{(R)-Phenylglycinyl}-OH] (H-[NMeF]KP[dCha]F[dPhg]-OH)",Ki,1900 nM
"N=C(N)NCCC[C@@H](NC(=O)[C@H](CC1CCCCC1)NC(=O)[C@@H](CC1CCCCC1)NC(=O)[C@H](CCCCN)NC(=O)[C@H](CCCCN)NC(=O)[C@@H](N)Cc1ccccc1)C(=O)O [Example 58, H-Phenylalanyl-Lysyl-Lysyl-{(2R)-2-Amino-3-cyclohexylpropanoyl}-{(2S)-2-Amino-3-cyclohexylpropanoyl}-DArginyl-OH] (H-FKK[dCha][Cha][dR]-OH)",Ki,11 nM
"CC(C)C[C@H](NC(=O)[C@H](CC1CCCCC1)NC(=O)[C@H](CC1CCCCC1)NC(=O)[C@H](CCCCN)NC(=O)[C@@H](N)Cc1ccc(I)cc1)C(=O)N[C@H](C)C(=O)N[C@@H](CCCNC(=N)N)C(=O)O [Example 107, H-(p-Iodo)Phenylalanyl-Lysyl-{(2S)-2-Amino-3-cyclohexylpropanoyl}-{(2S)-2-Amino-3-cyclohexylpropanoyl}-Leucyl-DAlanyl-Arginyl-OH] (H-[Phe(4-I)]K[Cha][Cha]L[dA]R-OH)",Ki,3600 nM
"CC(C)C[C@@H](NC(=O)[C@H](CC1CCCCC1)NC(=O)[C@H](CC1CCCCC1)NC(=O)[C@H](C)NC(=O)[C@H](CCCCN)NC(=O)[C@@H](N)Cc1ccccc1)C(=O)N[C@@H](CCCNC(=N)N)C(=O)O [Example 195, H-Phenylalanyl-Lysyl-Alanyl-{(2S)-2-Amino-3-cyclohexylpropanoyl}-{(2S)-2-Amino-3-cyclohexylpropanoyl}-DLeucyl-Arginyl-OH] (H-FKA[Cha][Cha][dL]R-OH)",Ki,1500 nM
"CN[C@@H](Cc1ccccc1)C(=O)N[C@@H](CCCCN)C(=O)N1CCC[C@H]1C(=O)N[C@H](CC1CCCCC1)C(=O)N[C@@H](CC1CCCCC1)C(=O)N[C@H](CCCNC(=N)N)C(=O)O [Example 166, (N-Methyl)Phenylalanyl-Lysyl-Prolyl-{(2R)-2-Amino-3-cyclohexylpropanoyl}-{(2S)-2-Amino-3-cyclohexylpropanoyl}-DArginyl-OH] (H-[NMeF]KP[dCha][Cha][dR]-OH)",Ki,35 nM
"CC(C)(C)CC(N)C(=O)N[C@@H](CCCCN)C(=O)N1CCC[C@H]1C(=O)N[C@H](CC1CCCCC1)C(=O)N[C@@H](CC1CCCCC1)C(=O)N[C@H](CCCNC(=N)N)C(=O)O (mixture of isomers) [Example 6, H-{(R/S)-t-Butylalanyl}-Lysyl-Prolyl-{(2R)-2-Amino-3-cyclohexylproanoyl}-{(2S)-2-Amino-3-cyclohexylpropanoyl}-DArginyl-OH]",Ki,80 nM
"CCCC[C@H](NC(=O)[C@H](Cc1ccccc1)NC)C(=O)N1CCC[C@H]1C(=O)N[C@H](CC1CCCCC1)C(=O)N[C@@H](CC1CCCCC1)C(=O)N[C@H](CCCNC(=N)N)C(=O)O [Example 187, (N-Methyl)Phenylalanyl-Norleucyl-Prolyl-{(2R)-2-Amino-3-cyclohexylpropanoyl}-{(2S)-2-Amino-3-cyclohexylpropanoyl}-DArginyl-OH] (H-[NMeF][Nle]P[dCha][Cha][dR]-OH)",Ki,300 nM
"CN[C@@H](Cc1ccccc1)C(=O)N[C@@H](CCCCN)C(=O)N[C@@H](CCC(=O)O)C(=O)N[C@H](CC1CCCCC1)C(=O)N[C@@H](Cc1ccccc1)C(=O)N[C@H](CCCNC(=N)N)C(=O)O [Example 40, (N-Methyl)Phenylalanyl-Lysyl-Glutamyl-{(2R)-2-Amino-3-cyclohexylpropanoyl}-Phenylalanyl-DArginyl-OH] (H-[NMeF]KE[dCha]F[dR]-OH)",Ki,100 nM
"CC(=O)N[C@@H](Cc1ccccc1)C(=O)N[C@@H](CCCCN)C(=O)N[C@@H](C)C(=O)N[C@H](CC1CCCCC1)C(=O)N[C@@H](CC1CCCCC1)C(=O)N[C@H](CCCNC(=N)N)C(=O)O [Example 120, N-Acetyl-Phenylalanyl-Lysyl-Alanyl-{(2R)-2-Amino-3-cyclohexylpropanoyl}-{(2S)-2-Amino-3-cyclohexylpropanoyl}-DArginyl-OH] (Ac-FKA[dCha][Cha][dR]-OH)",Ki,110 nM
"CN[C@@H](Cc1ccccc1)C(=O)N[C@@H](CCCCNC(=O)C(F)(F)F)C(=O)N1CCC[C@H]1C(=O)N[C@H](CC1CCCCC1)C(=O)N[C@@H](CC1CCCCC1)C(=O)N[C@H](CCCNC(=N)N)C(=O)O [Example 305, (N-Methyl)Phenylalanyl-Lysyl(N-epsilon-trifluoroacetyl)-Prolyl-{(2R)-2-Amino-3-cyclohexylpropanoyl}-{(2S)-2-Amino-3-cyclohexylpropanoyl}-DArginyl-OH] (H-[NMeF]K(Tfa)P[dCha][Cha][dR]-OH)",Ki,220 nM
"CN[C@@H](Cc1ccccc1)C(=O)N[C@@H](CCCCN)C(=O)N1CCC[C@H]1C(=O)N[C@H](Cc1cccc2ccccc12)C(=O)N[C@@H](Cc1ccccc1)C(=O)N[C@H](CCCNC(=N)N)C(=O)O [Example 224, (N-Methyl)Phenylalanyl-Lysyl-Prolyl-D(1-Naphthylalanyl)-Phenylalanyl-DArginyl-OH] (H-[NMeF]KP[d1Nal]F[dR]-OH)",Ki,12 nM
"CN[C@@H](Cc1ccccc1)C(=O)N[C@@H](CCCCN)C(=O)N1CCC[C@H]1C(=O)N[C@H](CC1CCCCC1)C(=O)N[C@@H](Cc1ccccc1)C(=O)N[C@H](Cc1ccccc1)C(=O)O [Example 212, (N-Methyl)Phenylalanyl-Lysyl-Prolyl-{(2R)-2-Amino-3-cyclohexylpropanoyl}-Phenylalanyl-DPhenylalanyl-OH] (H-[NMeF]KP[dCha]F[dF]-OH)",Ki,110 nM
"CN[C@@H](Cc1ccccc1)C(=O)N[C@@H](CCCCN)C(=O)N1CCC[C@H]1C(=O)N[C@H](CC1CCCCC1)C(=O)N[C@@H](Cc1ccccc1)C(=O)N[C@H](CCCNC(=N)N)C(=O)O [Example 128, (N-Methyl) Phenylalanyl-Lysyl-Prolyl-{(2R)-2-Amino-3-cyclohexylpropanoyl}-Phenylalanyl-DArginyl-OH] (H-[NMeF]KP[dCha]F[dR]-OH)",Ki,39 nM
"C[C@H](NC(=O)[C@H](CCCCN)NC(=O)[C@@H](N)Cc1ccccc1)C(=O)N[C@H](CC1CCCCC1)C(=O)N[C@@H](CC1CCCCC1)C(=O)N[C@H](CCCNC(=N)N)C(=O)O [Example 370, H-Phenylalanyl-Lysyl-Alanyl-{(2R)-2-Amino-3-cyclohexylpropanoyl}-{(2S)-2-Amino-3-cyclohexylpropanoyl}-DArginyl-OH] (H-FKA[dCha][Cha][dR]-OH)",Ki,85 nM
"CC(C)C[C@H](NC(=O)[C@H](CC1CCCCC1)NC(=O)[C@H](CC1CCCCC1)NC(=O)[C@H](C)NC(=O)[C@H](CCCCN)NC(=O)[C@@H](N)Cc1ccccc1)C(=O)N[C@H](CCCNC(=N)N)C(=O)O [Example 214, H-Phenylalanyl-Lysyl-Alanyl-{(2S)-2-Amino-3-cyclohexylpropanoyl}-{(2S)-2-Amino-3-cyclohexylpropanoyl}-Leucyl-DArg] (H-FKA[Cha][Cha]L[dR]-OH)",Ki,90 nM
